One assay deals with mGlu6 (Homo sapiens, UniProt O15303). The following applies: literature, functional models; cited from earlier work.
The subject of assay [1] is rhythmic bladder-voiding contractions in anaesthetised rats. As to the kind of experiment: Rhythmic bladder-voiding contractions induced by bladder filling in anaesthetised rats. Type of assay: in vivo, rat. The following applies: for BLADDER CONTRACTIONS quiescence time: mean ± SEM. How it is done:
The animals were housed with free access to food and water and maintained on a forced 12-hour alternating light-dark cycle at 22-24° C. for at least one week, except during the experiment. […] The catheter was tied in place with a ligature around the external urethral orifice and was connected to conventional pressure transducers (Statham P23 ID/P23 XL). […] The bladder was then filled via the recording catheter by incremental volumes of warm (37° C.) saline until reflex bladder-voiding contractions occurred (usually 0.8-1.5 ml). For intravenous injection of bioactive compounds, PE 50 polyethylene tubing filled with physiological saline was inserted into the jugular vein.
From the cystometrogram, the number of contractions recorded 15 minutes before (basal values) and after treatment, as well as the mean amplitude of these contractions (mean height of the peaks in mmHg), were evaluated.
Morphine was tested, too, as a reference standard for this model.

Assay [2] concerns the target T1, mGlu5 (Rattus norvegicus, UniProt P31424). As to the kind of experiment: biochemical.
Procedure: (§1) Male Sprague Dawley rats (200-300 g, Charles River, Italy) were killed by cervical dislocation and the forebrain (cortex, striatum and hippocampus) and cerebellum were homogenized (2×20 sec) in 50 vols of cold 50 mM Tris buffer pH 7.4, using a Politron homogenizer (Kinematica). […] The final pellets were frozen and stored at −80° C. until use.
(§2) ii) mGlu5: On experimental section pellets from rat forebrain were resuspended in 100 vols of 20 mM HEPES, 2 mM MgCl2, 2 mM CaCl2, pH 7.4.
(§3) The filters were then washed with cold buffer and the radioactivity retained on the filters was counted by liquid scintillation spectrometry.
(§4) Data were expressed as the mean of pKi(−log Ki)±SE.
The target in a further assay is mGlu5a (Homo sapiens, UniProt P41594). The following applies: literature, functional models; cited from earlier work.
The target of assay [3] is T1, mGlu5. The note with it: rat forebrain.
Procedure: as §1, §2, §3, §4
For the next assay, the target named is T2, mGlu1 (Rattus norvegicus, UniProt P23385).
T2 construct: pellets from rat cerebellum were resuspended; from tissue; host or cells: rat cerebellum membranes (male Sprague Dawley)
As to the kind of experiment: Radioligand binding assay at mGlu1, [3H]quisqualic acid, rat cerebellum membranes. The following applies: [3H]quisqualic acid.

In a further assay the target is mGlu1a (Homo sapiens, UniProt Q13255). The following applies: literature, functional models; cited from earlier work.
Another assay concerns the target mGlu8 (Homo sapiens, UniProt O00222). The following applies: literature, functional models; cited from earlier work.
For the next assay, the target named is mGlu4a (Homo sapiens, UniProt Q14833). The note with it: literature, functional models; cited from earlier work.
Another assay has as its target mGlu7 (Homo sapiens, UniProt Q14831). The note with it: literature, functional models; cited from earlier work.
The subject of the next assay is conscious rats. In words: Cystometric parameters in conscious rats (bladder infused with saline). Type of assay: in vivo, rat. As to the method:
Male Sprague-Dawley rats [Crl: CD® (SD) IGS BR] of 300-400 g b.w. supplied by Charles River Italia were used. The animals were housed with free access to food and water and maintained on a forced 12-hour-light/12-hour-dark cycle at 22-24° C. of temperature, except during the experiment. To quantify urodynamic parameters in conscious rats, cystometrographic studies were performed according to the procedure previously reported (Guarneri et al., Pharmacol. Res. 24: 75, 1991).
Briefly, the rats were anaesthetized by intraperitoneal administration of 3 ml/kg of Equithensin solution (pentobarbital 30 mg/kg and chloral hydrate 125 mg/kg) and placed in a supine position. An approximately 10 mm long midline incision was made in the shaved and cleaned abdominal wall. The urinary bladder was gently freed from adhering tissues, emptied and then cannulated via an incision in the bladder body, using a polyethylene cannula (0.58 mm internal diameter, 0.96 mm external diameter) which was permanently sutured with silk thread. For intravenous bolus injection, a similar polyethylene tubing filled with physiological saline containing sodium heparin (40 I.U./ml) was inserted into the jugular vein. The cannulae were exteriorized through a subcutaneous tunnel in the retroscapular area, where they were connected to a plastic adapter in order to avoid the risk of removal by the animal. For drug testing, the rats were utilized one day after implantation.
On the day of the experiment, the rats were placed in modified Bollman cages, i.e., restraining cages that were large enough to permit the rats to adopt a normal crouched posture, but narrow enough to prevent turning around. After a stabilization period of about 20 minutes, the free tip of the bladder cannula was connected through a T-shaped tube to a pressure transducer (Statham P23XL) and to a peristaltic pump (Gilson minipuls 2) for continuous infusion of a warm (37° C.) saline solution into the urinary bladder, at a constant rate of 0.1 ml/minute. The intraluminal-pressure signal during infusion of saline into the bladder was continuously recorded on a polygraph (Rectigraph-8K San-ei with BM614/2 amplifier from Biomedica Mangoni) and, from the cystometrogram, two urodynamic parameters were evaluated: bladder volume capacity (BVC) and micturition pressure (MP). BVC (in ml) is defined as the volume of saline infused into the bladder necessary to induce detrusor contraction followed by micturition. MP (in mmHg) is defined as the maximal intravesical pressure caused by contraction during micturition. Basal BVC and MP values were evaluated as the mean of the values observed in the cystometrograms recorded in an initial period of 30-60 minutes. At this point in the assay, the infusion was interrupted and the test compounds were administered either intravenously by the jugular catheter or orally by a stomach tube. The bladder infusion restarted and changes in BVC and MP were evaluated from the mean values obtained in the cystometrograms observed during 1, 2, 3, 4, and 5 hours after treatment. The compounds were administered in a volume of 1 ml/kg and 2 ml/kg for intravenous and oral administration routes, respectively. Groups of control animals received the same amount of vehicle corresponding to a solution of 8% dimethylformamide and 8% Tween 80 in water (final concentrations) for intravenous, or a solution of 0.5% methocel in water for oral route.
Under the given test conditions, measurement of BVC is equivalent to measurement of interval time between micturitions.
All data were expressed as mean±standard error. The percent changes of BVC and MP relative to the basal values, as well as Δ values (difference in ml or in mmHg) of BVC and MP (BVC or MP at time “x” minus basal value), were also evaluated for each rat/time. In the figures, data were reported as percentage changes relative to basal values. […]

Assay [4] deals with Group II (mGlu2 + mGlu3) receptors. In words: Radioligand binding assay at Group II (mGlu2+mGlu3), [3H]LY341495, rat forebrain membranes. The note with it: rat forebrain, [3H]LY341495.
Procedure: as §1
iii) Group II (mGlu2+mGlu3): On experimental section pellets from rat forebrain were resuspended in 250 vols of 20 mM HEPES, 2 mM MgCl2, 2 mM CaCl2, pH 7.4. The membranes were incubated in a final volume of 1 ml for 30 min at 0° C. with 1 nM [^3H]LY341495 in the absence or presence of competing drugs.
as §3, §4
For another assay, the target named is mGlu2 (Homo sapiens, UniProt Q14416). The note with it: literature, functional models; cited from earlier work.

The structures appear in SMILES notation.

The text below walks through data of patent US20040215284A1, “Treatment of neuromuscular dysfunction of the lower urinary tract with selective mGlu5 antagonists” (Recordati S.A., priority 2003, published 2004).

T1 sequence (P31424 21-1203): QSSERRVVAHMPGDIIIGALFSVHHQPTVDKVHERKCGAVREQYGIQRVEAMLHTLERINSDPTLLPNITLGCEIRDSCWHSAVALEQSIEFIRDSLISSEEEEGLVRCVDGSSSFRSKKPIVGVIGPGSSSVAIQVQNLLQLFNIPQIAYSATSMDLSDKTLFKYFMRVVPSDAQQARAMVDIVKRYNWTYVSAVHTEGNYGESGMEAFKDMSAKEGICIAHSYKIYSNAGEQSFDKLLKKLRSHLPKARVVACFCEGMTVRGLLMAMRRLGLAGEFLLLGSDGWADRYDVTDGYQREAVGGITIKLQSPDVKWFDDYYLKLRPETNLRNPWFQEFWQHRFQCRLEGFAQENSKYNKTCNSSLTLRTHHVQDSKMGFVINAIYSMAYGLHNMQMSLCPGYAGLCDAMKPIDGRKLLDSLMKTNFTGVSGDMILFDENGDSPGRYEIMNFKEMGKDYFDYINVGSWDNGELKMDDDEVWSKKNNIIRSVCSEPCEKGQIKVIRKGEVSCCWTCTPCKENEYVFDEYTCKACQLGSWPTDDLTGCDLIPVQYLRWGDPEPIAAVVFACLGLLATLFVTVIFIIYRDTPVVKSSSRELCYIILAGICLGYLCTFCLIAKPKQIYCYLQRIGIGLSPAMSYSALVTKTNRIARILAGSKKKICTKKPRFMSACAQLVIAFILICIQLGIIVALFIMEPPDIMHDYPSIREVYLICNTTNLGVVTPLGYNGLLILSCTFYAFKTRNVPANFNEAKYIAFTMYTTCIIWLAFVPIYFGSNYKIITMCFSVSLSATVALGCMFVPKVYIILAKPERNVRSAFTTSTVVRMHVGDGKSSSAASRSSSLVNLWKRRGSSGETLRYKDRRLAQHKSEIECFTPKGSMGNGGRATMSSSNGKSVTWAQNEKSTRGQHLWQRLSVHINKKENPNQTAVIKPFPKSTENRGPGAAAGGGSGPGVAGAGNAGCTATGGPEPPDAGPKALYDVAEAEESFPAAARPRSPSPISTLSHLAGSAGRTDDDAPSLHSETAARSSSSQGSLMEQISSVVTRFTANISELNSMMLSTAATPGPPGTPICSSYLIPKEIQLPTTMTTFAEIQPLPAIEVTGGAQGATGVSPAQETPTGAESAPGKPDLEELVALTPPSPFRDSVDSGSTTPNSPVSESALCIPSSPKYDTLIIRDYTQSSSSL
Chain of mGlu1a (Q13255 19-1194): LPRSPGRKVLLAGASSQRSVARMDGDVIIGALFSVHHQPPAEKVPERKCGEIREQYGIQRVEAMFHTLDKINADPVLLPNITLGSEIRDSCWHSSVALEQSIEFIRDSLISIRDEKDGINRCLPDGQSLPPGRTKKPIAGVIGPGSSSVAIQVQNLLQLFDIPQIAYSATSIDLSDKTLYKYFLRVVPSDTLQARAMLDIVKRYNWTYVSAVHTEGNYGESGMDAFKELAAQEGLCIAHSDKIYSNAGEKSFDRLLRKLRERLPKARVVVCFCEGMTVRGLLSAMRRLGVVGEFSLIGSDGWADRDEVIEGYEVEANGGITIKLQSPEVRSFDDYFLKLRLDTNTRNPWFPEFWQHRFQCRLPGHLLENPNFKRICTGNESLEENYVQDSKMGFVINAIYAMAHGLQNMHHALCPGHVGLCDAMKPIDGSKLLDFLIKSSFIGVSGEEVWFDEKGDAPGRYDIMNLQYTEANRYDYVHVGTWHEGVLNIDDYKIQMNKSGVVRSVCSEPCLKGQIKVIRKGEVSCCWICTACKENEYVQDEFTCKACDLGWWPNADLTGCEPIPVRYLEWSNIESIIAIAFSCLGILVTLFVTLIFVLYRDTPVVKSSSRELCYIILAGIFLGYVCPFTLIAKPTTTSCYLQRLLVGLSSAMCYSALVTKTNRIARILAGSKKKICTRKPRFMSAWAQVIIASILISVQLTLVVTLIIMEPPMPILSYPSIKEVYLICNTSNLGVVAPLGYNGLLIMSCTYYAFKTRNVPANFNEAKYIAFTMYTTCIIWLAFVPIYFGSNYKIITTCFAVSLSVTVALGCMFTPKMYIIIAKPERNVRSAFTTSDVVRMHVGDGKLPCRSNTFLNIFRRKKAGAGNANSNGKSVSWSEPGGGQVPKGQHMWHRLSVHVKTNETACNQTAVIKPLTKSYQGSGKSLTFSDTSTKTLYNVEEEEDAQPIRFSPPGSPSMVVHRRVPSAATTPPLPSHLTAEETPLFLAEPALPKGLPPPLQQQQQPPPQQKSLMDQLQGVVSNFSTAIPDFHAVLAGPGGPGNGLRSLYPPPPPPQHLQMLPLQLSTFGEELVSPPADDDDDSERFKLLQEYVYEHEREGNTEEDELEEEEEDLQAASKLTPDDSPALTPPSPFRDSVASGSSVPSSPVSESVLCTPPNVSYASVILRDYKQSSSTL
Chain of mGlu8 (O00222 34-908): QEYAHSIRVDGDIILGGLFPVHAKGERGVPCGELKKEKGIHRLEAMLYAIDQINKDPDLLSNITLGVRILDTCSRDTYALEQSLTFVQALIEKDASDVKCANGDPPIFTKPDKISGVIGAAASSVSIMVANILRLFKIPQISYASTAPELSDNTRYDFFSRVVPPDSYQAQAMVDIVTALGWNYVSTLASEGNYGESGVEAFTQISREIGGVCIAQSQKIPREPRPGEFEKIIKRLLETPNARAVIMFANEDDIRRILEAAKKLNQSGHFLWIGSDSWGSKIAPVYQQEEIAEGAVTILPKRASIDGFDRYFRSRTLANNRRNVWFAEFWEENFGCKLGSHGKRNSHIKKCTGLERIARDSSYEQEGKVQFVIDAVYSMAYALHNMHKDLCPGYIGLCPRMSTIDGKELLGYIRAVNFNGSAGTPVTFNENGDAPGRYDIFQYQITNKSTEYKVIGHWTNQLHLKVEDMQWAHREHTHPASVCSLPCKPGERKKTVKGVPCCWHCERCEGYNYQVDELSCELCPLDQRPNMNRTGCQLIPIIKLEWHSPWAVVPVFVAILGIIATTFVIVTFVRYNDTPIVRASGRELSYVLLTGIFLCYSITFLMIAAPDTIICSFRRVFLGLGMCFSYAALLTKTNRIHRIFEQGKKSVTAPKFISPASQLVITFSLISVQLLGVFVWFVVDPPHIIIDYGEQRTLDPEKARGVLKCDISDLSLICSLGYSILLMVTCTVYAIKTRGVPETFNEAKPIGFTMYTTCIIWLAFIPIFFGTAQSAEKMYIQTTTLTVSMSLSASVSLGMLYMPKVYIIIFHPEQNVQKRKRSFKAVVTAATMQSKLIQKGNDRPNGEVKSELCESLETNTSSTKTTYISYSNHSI
Chain of mGlu6 (O15303 25-877): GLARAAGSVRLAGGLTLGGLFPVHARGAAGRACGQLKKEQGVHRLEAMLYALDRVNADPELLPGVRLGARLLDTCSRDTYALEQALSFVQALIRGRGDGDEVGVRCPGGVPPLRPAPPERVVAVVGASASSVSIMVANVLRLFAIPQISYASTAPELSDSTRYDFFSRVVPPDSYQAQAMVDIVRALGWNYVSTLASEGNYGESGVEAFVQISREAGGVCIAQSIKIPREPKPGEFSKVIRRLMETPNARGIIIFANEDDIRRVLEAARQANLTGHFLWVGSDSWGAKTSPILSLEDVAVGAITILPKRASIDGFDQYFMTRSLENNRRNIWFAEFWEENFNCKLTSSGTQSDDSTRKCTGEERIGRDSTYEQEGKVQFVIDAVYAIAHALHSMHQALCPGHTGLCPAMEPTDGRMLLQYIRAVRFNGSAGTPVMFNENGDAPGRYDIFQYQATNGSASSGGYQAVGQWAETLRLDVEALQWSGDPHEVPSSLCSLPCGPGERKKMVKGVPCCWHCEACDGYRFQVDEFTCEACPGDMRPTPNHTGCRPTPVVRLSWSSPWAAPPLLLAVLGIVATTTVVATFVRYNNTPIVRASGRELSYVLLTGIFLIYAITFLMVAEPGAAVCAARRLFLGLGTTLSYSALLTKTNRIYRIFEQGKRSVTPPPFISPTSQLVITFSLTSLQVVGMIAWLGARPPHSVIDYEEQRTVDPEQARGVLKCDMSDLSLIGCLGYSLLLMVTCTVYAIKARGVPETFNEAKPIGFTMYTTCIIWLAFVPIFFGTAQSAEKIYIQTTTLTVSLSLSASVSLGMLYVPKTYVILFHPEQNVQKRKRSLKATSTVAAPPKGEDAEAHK
Chain of mGlu7 (Q14831 35-915): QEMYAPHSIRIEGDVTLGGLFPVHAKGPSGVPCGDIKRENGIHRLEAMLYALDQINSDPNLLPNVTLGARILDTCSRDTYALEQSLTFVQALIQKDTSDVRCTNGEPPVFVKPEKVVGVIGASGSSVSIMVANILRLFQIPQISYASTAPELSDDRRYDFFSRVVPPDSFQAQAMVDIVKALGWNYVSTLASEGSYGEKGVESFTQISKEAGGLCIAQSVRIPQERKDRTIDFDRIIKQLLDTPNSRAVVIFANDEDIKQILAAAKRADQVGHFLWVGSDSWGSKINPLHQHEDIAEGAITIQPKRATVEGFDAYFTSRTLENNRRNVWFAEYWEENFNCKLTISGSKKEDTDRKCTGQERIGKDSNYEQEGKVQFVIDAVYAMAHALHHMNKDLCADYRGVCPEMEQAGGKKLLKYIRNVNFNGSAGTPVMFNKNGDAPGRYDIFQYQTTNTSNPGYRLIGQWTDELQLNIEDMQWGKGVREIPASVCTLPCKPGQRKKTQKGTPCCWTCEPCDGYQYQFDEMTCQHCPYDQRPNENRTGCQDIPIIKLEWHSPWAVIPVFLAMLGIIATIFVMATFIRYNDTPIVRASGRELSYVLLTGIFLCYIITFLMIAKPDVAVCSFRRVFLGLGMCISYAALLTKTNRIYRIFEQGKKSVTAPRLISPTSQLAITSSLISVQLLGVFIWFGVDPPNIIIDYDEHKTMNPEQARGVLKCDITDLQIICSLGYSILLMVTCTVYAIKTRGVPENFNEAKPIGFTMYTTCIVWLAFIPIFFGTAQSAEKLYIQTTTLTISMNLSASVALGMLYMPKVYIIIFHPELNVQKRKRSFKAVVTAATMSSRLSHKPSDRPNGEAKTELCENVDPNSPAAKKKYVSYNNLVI

One may read the IC50 as the midpoint of a concentration-inhibition curve. As a reminder, the Ki is a measure of affinity in units of concentration, obtained from inhibition or displacement. In the case of `Cc1cccc(C=Cc2ccccc2)n1` [SIB 1893, 2-methyl-6-(2-phenylethenyl)pyridine], the IC50 was more than 30 µM on mGlu6; 0.3 µM on mGlu5a; more than 30 µM on mGlu1a; more than 30 µM at mGlu8; more than 30 µM on mGlu4a; more than 30 µM on mGlu7. In addition, at mGlu2, the IC50 was more than 30 µM. Besides, the “BLADDER CONTRACTIONS quiescence time” value in assay [1] (1000 μg/kg i.v.) is recorded as 4.44 ± 1.05 min; in assay [1] (2000 μg/kg i.v.), 8.00 ± 0.78 min; in [1] (3000 μg/kg i.v.) it was 15.57 ± 1.34 min. Moreover, the “activity as inhibitors of isovolumic voiding contractions (in words)” value in assay [1] (i.v., anaesthetised rats) was “active”. In [1] (i.v., anaesthetised rats), the “amplitude of contractions when contractions resumed, relative to before treatment (in words)” value is “no difference in the amplitude”. Moreover, in assay [1] (i.v., linear regression), the “ED10min (extrapolated dose inducing 10 min of bladder quiescence)” value is 1.928 mg/kg. Moreover, the Ki at mGlu5 [2] was 0.859 µM; at mGlu1 it was more than 10 µM; in [4] it was more than 10 µM. Further, the “inhibition of the specific binding of [3H]MPEP to mGlu5 receptor (in words)” value on mGlu5 [3] is on record as “weaker affinity”. The “bladder volume capacity (BVC)” value in the assay on conscious rats (50 mg/kg i.v., FIG. 1) was “significantly increased the BVC only in comparison with the basal values”. Besides, the “micturition pressure (MP)” value with conscious rats (i.v., MPEP 3 and 10 mg/kg, SIB 1893 50 mg/kg, FIG. 2) was “only mild effects on the micturition pressure”.
